PubChem BioAssay (NCI)
Values joined by “and” are separate entries in the source; they are usually repeats but may differ in a detail not shown here. Equal entries are not always repeated.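 96-well plates; 48 h exposure; 5 concentrations. Endpoints by linear interpolation between flanking doses. Not reached: highest tested concentration assigned. Abbreviation: GI50, concentration required for 50% inhibition of growth. TGI: concentration producing complete growth inhibition.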

Columns and labels:
P388 leukemia = assay: NCI tumour cell line growth inhibition, 48 h
P388/ADR leukemia = assay: NCI tumour cell line growth inhibition, 48 h

| Compound | TGI (P388 leukemia) [µM] | GI50 (P388/ADR leukemia) | TGI (P388/ADR leukemia) | GI50 (P388 leukemia) [µM] |
| --- | --- | --- | --- | --- |
| NC(=S)N/N=C/c1ccc(O)cn1 | 8.3 | 0.943 µM and 1.5 µM | 154 µM and 24.5 µM | – |
| CCOC(=O)NC1=C(N2CC2)C(=O)C(NC(=O)OCC)=C(N2CC2)C1=O | 14 | – | 17.6 µM | – |
| OC(C1CO1)C(O)C1CO1 (stereo not drawn) | 150 | – | 150 µM | – |
| O=C(NCCCCCCNC(=O)n1cc(F)c(=O)[nH]c1=O)NCCCOCCOCCOCCOCCOCCOCCOCCOCCOCCOCCOCCOCCOCCOCCOCCOCCOCCOCCOCCOCCOCCCNC(=O)C(O)C(O)C(OC1OC(CO)C(O)C(O)C1O)C(O)CO (stereo not drawn) | > 100 | – | > 100 µM | – |
| CC(C)[NH-].CC(C)[NH-].O.O.[Cl][Pt+2][Cl] | 37.9 | 8.11 µM | 59.9 µM | 6.66 |
